In patent US6994981B2, “Modulators of paraptosis and related methods” (The Buck Institute, priority 2002, dated 2006):
No end group written: not given here.

Columns and labels:
[1] = test system: striatal, cortical, and hippocampal neurons; assay: SP-induced cell death in primary striatal, cortical and hippocampal neurons, trypan blue viability and staining; type: cell-based, rat; conditions: compared with SP
Protocol: Rat neuronal primary cell cultures were also used to assay for inducers and inhibitors of paraptosis. Briefly, primary striatal, cortical and hippocampal cultures were prepared from 17-day-old Sprague-Dawley rat embryos (B&K). The tissue was dissected, minced and trypsinized for five minutes using 0.25% trypsin (Cell Grow). After the addition of 10% horse serum (Life Technologies) to inhibit the trypsin, the cell suspension was triturated 15–20 times with a 10 ml syringe and centrifuged for five minutes at 800×g. The pellet was resuspended in MEM-PAK (UCSF Cell Culture facility), supplemented with 2.02 gm glucose, 2 mM GLUTAMAX™ (Life Technologies) and penicillin/streptomycin (100 U/ml). The suspension was filtered through a […] cell strainer and the final culture medium contained 5% horse serum. Subsequently, 3-4×10^5 cells per Cm^2 were seeded onto either poly-D-lysine precoated 8-well chamber slides (Becton-Dickson Labware) or 96 well plates precoated with […] of poly-D-lysine (Sigma) in water. After 30 minutes of incubation time, unattached cells were removed together with the medium and replaced with glucose enriched MEM-PAK plus 5% horse serum. The cultures were then incubated at 37° C. in 95% air 5% carbon dioxide with 95% humidity. Cultures were used for experiments between day 1 and day 7 when glial contamination was at a minimum.
Primary neuronal cells were prepared as described in Example I. SP (SIGMA) at a concentration of 0.1 nM–100 μM was added 24–48 hrs after seeding, in the presence of 2.5% horse serum. When the cultures were maintained for more than 5 days, 10 μM cytosine arabinoside was added for 24 hours, beginning 3 days after plating the cells. Viability was quantified by trypan blue staining of the total cell population.
The following compounds were added at the same time as SP in the indicated experiments: 5 nM L-732, 138; 1 nM L-733,060; 1 μg/ml Actinomycin D or 1 μg/ml Cycloheximide. All of these compounds were obtained from SIGMA. The caspase inhibitors zVAD.fmk and BAF were added at 50 μM and obtained from Enzyme System Products, Livermore, Calif.
Either neuronal primary cultures or human embryonic kidney 293T cells were fixed with 4% paraformaldehyde and stained with 0.5 μg/ml DAPI (Molecular Probes) or Hoechst(SIGMA). […]
The protein kinase inhibitors were added 30 min before SP exposure at the following concentrations: 10 μM Rp-8-Br-cAMPS (adenosin 3′,5′-cyclic monophosphorothioate, 8-bromo-, Rp-isomer, sodium salt) which is a PKA inhibitor; 50 nM Calphostin C, which is a PKC inhibitor; 10 μM PD 98059 which is a MAPKK (MEK) inhibitor. These compounds were obtained from Calbiochem. Viability was quantified by trypan blue staining of the total cell population.

[2] = target: neurokinin-1 receptor (NK1R) (Rattus norvegicus, UniProt P14600); conditions: cited from earlier work
Chain of neurokinin-1 receptor (NK1R) (P14600 whole entry): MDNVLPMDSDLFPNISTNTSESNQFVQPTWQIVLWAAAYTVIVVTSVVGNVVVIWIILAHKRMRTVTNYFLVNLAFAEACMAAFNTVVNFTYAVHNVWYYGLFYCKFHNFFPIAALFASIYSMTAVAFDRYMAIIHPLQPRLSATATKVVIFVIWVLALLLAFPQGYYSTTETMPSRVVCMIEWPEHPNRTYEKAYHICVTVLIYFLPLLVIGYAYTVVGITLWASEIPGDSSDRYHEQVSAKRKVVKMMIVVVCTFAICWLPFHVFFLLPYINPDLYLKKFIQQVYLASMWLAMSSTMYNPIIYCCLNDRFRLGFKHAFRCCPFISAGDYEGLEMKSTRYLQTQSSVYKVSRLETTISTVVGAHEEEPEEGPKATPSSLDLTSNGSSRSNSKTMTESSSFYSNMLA

## SP 6–11: truncated form of SP containing amino acids 6 through 11 of the SP polypeptide (QFFGLM; ends and bridges not checked)
[1]
  induction of cell death by NK1R agonists: able to induce cell death as well as SP
[2]
  affinity for NK1R: good affinity
